# Values quoted from earlier work in patent US9968621B2, “Parenteral compositions of celecoxib” (Dr. Reddy's Laboratories Ltd., priority 2014, dated 2018).
# Conditions: after an oral dose
compound,measurement,value
"Cc1ccc(-c2cc(C(F)(F)F)nn2-c2ccc(S(N)(=O)=O)cc2)cc1 [Celecoxib, 4-[5-(4-methylphenyl)-3-(trifluoromethyl)-1H-pyrazol-1-yl] benzenesulfonamide]",Time of peak plasma levels,approximately 3 hrs
